US20240190890A1, “MK2 INHIBITORS AND USES THEREOF” (Bristol-Myers Squibb Company, priority 2022, published 2024)

Target: p38a activated, mitogen-activated protein kinase-activated protein kinase 2 (MAPKAP-K2 or MK2) enzyme (Homo sapiens (Human), UniProt P49137)
Assay: MK2 Omnia continuous-read kinase assay for compound potency
Type: biochemical
Conditions: [MK-2]=0.4 nM, [ATP]=10 μM, [ST3-Sox]=10 μM; room temperature
Source text: Mitogen-Activated Protein Kinase-Activated Protein Kinase 2 Omnia® Assay for Compound Potency Assessment:
The protocol below describes a continuous-read kinase assay optimized to measure potency of compounds against p38a activated, mitogen-activated protein kinase-activated protein kinase 2 (MAPKAP-K2 or MK2) enzyme. Further details of this assay are described by Life Technologies, Carlsbad, CA on their website at the following URL: http://tools.lifetechnologies.com/content/sfs/manuals/omnia_kinase_assay_man.pdf. • [Reagent] used: • [MK-2]=0.4 nM, • [ATP]=10 μM and • [ST3-Sox]=10 μM (ATP^appKM=10 μM)
Briefly, 10× stock solutions of MK2 (PV3317, from Life Technologies), 1.13X ATP (AS001A), and Sox conjugated peptide substrate, S/T3-Sox, (KZN1031) were prepared in 1× kinase reaction buffer consisting of 20 mM Tris, pH 7.5, 5 mM MgCl2, 1 mM EGTA, 5 mM β-glycerophosphate, 5% glycerol (10× stock, KB001A) and 0.2 mM DTT (DS001A). Enzyme solution (5 μL) was added to each of DMSO ([…]) or serially diluted test compounds prepared in DMSO in a Corning (#3574) 384-well, white, non-binding surface microtiter plate (Corning, NY). Kinase reactions were started with the addition of 45 μL of the ATP-peptide substrate S/T3-Sox mix and monitored every 71 seconds for 120 minutes at λex360/λem485 in a Synergy H4 plate reader from BioTek (Winooski, VT) at room temperature.
Background signals from the no enzyme control wells were subtracted from all progress curves. The initial linear portions of the net progress curves were fit according to a linear equation to yield the slope and percentage of inhibition (% inhibition) at each compound concentration. The net progress curves obtained during the first two hours of reactions were also fit according to an ascending single-exponential equation (Eq. 1) to yield kobs values at each compound concentration. Plots of % Inhibition versus inhibitor concentrations were fit according to a dose-response equation (Eq. 2) to generate IC50 and Hill slope values while plots of kobs versus inhibitor concentration were fit according to Equation 3 (Eq. 3) to generate apparent kinact/K1 values using the GraphPad PRISM software (Version 6.00; GraphPad San Diego, CA).
where F is the fluorescence intensity from the plate reader, V0 is a constant reflecting the relationship between the instrument readout and product concentration, t is time, e is Euler's number, and kobs is the observed inactivation rate constant.
where % Inhibition is percentage of inhibition, IC50 is half maximal inhibitory concentration, [I] is the inhibitor concentration, and n is the Hill slope.
where kobs is the observed inactivation rate constant, kinact is the apparent inactivation rate constant, K1 is the apparent inhibition constant, and [I] is the inhibitor concentration. […] Potency results for the compounds tested are shown in Table 4 in the column entitled “MK2 IC50.”

p38a activated, mitogen-activated protein kinase-activated protein kinase 2 (MAPKAP-K2 or MK2) enzyme, sequence (P49137 whole entry): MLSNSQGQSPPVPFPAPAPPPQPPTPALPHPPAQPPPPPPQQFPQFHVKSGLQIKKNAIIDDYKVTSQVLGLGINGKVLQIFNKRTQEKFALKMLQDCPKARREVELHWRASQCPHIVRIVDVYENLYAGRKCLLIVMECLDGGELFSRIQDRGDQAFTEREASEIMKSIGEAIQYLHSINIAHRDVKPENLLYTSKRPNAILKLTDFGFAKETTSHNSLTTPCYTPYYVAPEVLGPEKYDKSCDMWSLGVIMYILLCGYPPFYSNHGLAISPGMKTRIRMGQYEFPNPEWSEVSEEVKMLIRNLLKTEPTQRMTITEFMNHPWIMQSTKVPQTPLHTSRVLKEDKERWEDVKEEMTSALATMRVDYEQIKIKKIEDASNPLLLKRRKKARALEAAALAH

Compound	IC50 [nM]
C=C(c1cncc(-c2ccc3c(ccc4sc5c(c43)NC[C@@H](C)NC5=O)n2)n1)C(F)(F)F [Example I-225, (R)-10-methyl-3-(6-(3,3,3-trifluoroprop-1-en-2-yl)pyrazin-2-yl)-9,10,11,12-tetrahydro-8H-[1,4]diazepino[5′,6′:4,5]thieno[3,2-f]quinolin-8-one]	19
C#Cc1cc(-c2ccc3c(ccc4sc5c(c43)NC[C@@H](C)NC5=O)n2)nc(N2CCN(C)CC2)n1 [Example I-59, (R)-3-(6-ethynyl-2-(4-methylpiperazin-1-yl)pyrimidin-4-yl)-10-methyl-9,10,11,12-tetrahydro-8H-[1,4]diazepino[5′,6′:4,5]thieno[3,2-f]quinolin-8-one]	3
C[C@@H]1CNc2c(sc3ccc4nc(-c5cc(Cl)nc(COC6CCOCC6)n5)ccc4c23)C(=O)N1 [Example I-23, (R)-3-(6-chloro-2-(((tetrahydro-2H-pyran-4-yl)oxy)methyl)pyrimidin-4-yl)-10-methyl-9,10,11,12-tetrahydro-8H-[1,4]diazepino[5′,6′:4,5]thieno[3,2-f]quinolin-8-one]	487
C#Cc1nc(-c2ccc3c(ccc4sc5c(c43)NC[C@@H](C)NC5=O)n2)cc(N2CCN(C)CC2)n1 [Example I-60, (R)-3-(2-ethynyl-6-(4-methylpiperazin-1-yl)pyrimidin-4-yl)-10-methyl-9,10,11,12-tetrahydro-8H-[1,4]diazepino[5′,6′:4,5]thieno[3,2-f]quinolin-8-one]	58
C#Cc1cccc(-c2ccc3c(ccc4sc5c(c43)NC[C@@H](C)NC5=O)n2)n1 [Example I-56, (R)-3-(6-ethynylpyridin-2-yl)-10-methyl-9,10,11,12-tetrahydro-8H-[1,4]diazepino[5′,6′:4,5]thieno[3,2-f]quinolin-8-one]	194
C[C@@H]1CNc2c(sc3ccc4nc(-c5cc(Cl)ncc5C(F)F)ccc4c23)C(=O)N1 [Example I-93, (R)-3-(2-chloro-5-(difluoromethyl)pyridin-4-yl)-10-methyl-9,10,11,12-tetrahydro-8H-[1,4]diazepino[5′,6′:4,5]thieno[3,2-f]quinolin-8-one]	238
C#Cc1cc(-c2ccc3c(ccc4sc5c(c43)NC[C@@H](C)NC5=O)n2)cc(CN2CCN(C)CC2)n1 [Example I-126, (R)-3-(2-ethynyl-6-((4-methylpiperazin-1-yl)methyl)pyridin-4-yl)-10-methyl-9,10,11,12-tetrahydro-8H-[1,4]diazepino[5′,6′:4,5]thieno[3,2-f]quinolin-8-one]	34
C[C@@H]1CNc2c(sc3ccc4nc(-c5ccnc(/C=C/C(F)(F)F)c5)ccc4c23)C(=O)N1 [Example I-199, (R,E)-10-methyl-3-(2-(3,3,3-trifluoroprop-1-en-1-yl)pyridin-4-yl)-9,10,11,12-tetrahydro-8H-[1,4]diazepino[5′,6′:4,5]thieno[3,2-f]quinolin-8-one]	636
C[C@@H]1CNc2c(sc3ccc4nc(-c5nc(Cl)ncc5COC5CCOCC5)ccc4c23)C(=O)N1 [Example I-24, (R)-3-(2-chloro-5-(((tetrahydro-2H-pyran-4-yl)oxy)methyl)pyrimidin-4-yl)-10-methyl-9,10,11,12-tetrahydro-8H-[1,4]diazepino[5′,6′:4,5]thieno[3,2-f]quinolin-8-one]	98
C[C@@H]1CNc2c(sc3ccc4nc(-c5cc(Cl)nnc5OCCN5CCOCC5)ccc4c23)C(=O)N1 [Example I-132, (R)-3-(6-chloro-3-(2-morpholinoethoxy)pyridazin-4-yl)-10-methyl-9,10,11,12-tetrahydro-8H-[1,4]diazepino[5′,6′:4,5]thieno[3,2-f]quinolin-8-one]	912
(R)-10-methyl-3-(6-(4-methylpiperazin-1-yl)-2-vinylpyrimidin-4-yl)-9,10,11,12-tetrahydro-8H-[1,4]diazepino[5′,6′:4,5]thieno[3,2-f]quinolin- [Example I-18]	4
